4 compounds from ChEMBL document CHEMBL4184246 (Bioorg Med Chem Lett, 2018) can be followed below.

Type in all cases: functional, cell-based
In test [1] the test system is A549. In words: Increase in DR5 protein expression in human A549 cells at 14 uM incubated for 4 days in absence of 200 U/ml IFNalpha by Western blot analysis.
Test [2] deals with A549. In words: Increase in DR5 protein expression in human A549 cells at 14 uM incubated for 4 days in presence of 200 U/ml IFNalpha by Western blot analysis.
Test [3] has as its system A549. Kind of test: Growth inhibition of human A549 cells at 14 uM incubated for 4 days in presence of 200 U/ml IFNalpha and 30 nM 14-3-3zeta siRNA by MTS assay. On the technique in general: Tetrazolium dyes change colour on reduction, which living cells bring about.
The subject of test [4] is OVCAR-3. In words: Growth inhibition of human OVCAR3 cells incubated for 7 days in absence of 400 U/ml IFNalpha by MTS assay. To be noted: OVCAR-3, 168 h.
Test [5] deals with A549. In words: Induction of apoptosis in human A549 cells assessed as increase in PARP cleavage at 14 uM incubated for 4 days in presence of 200 U/ml IFNalpha by Western blot analysis.
The subject of test [6] is A549. Kind of test: Growth inhibition of human A549 cells incubated for 6 days in presence of 400 U/ml IFNalpha by MTS assay. To be noted: A549, 144 h.
The test system of test [7] is A549. In words: Growth inhibition of human A549 cells incubated for 6 days in absence of 400 U/ml IFNalpha by MTS assay. The note with it: A549, 144 h.
In test [8] the test system is OVCAR-3. Kind of test: Growth inhibition of human OVCAR3 cells incubated for 7 days in presence of 400 U/ml IFNalpha by MTS assay. To be noted: OVCAR-3, 168 h.
Test [9] concerns A549. Kind of test: Growth inhibition of human A549 cells at 14 uM incubated for 4 days in presence of 200 U/ml IFNalpha and in absence of 30 nM 14-3-3zeta siRNA by MTS assay.
Test [10] concerns A549. In words: Growth inhibition of human A549 cells at 13 uM incubated for 4 days in presence of 200 U/ml IFNalpha and 30 nM 14-3-3zeta siRNA by MTS assay.
The subject of test [11] is A549. In words: Induction of apoptosis in human A549 cells assessed as increase in PARP cleavage at 13 uM incubated for 4 days in absence of 200 U/ml IFNalpha by Western blot analysis.
In test [12] the test system is A549. In words: Induction of apoptosis in human A549 cells assessed as increase in PARP cleavage at 13 uM incubated for 4 days in presence of 200 U/ml IFNalpha by Western blot analysis. For orientation: Immunoblotting shows a protein as a band on a membrane.
In test [13] the test system is A549. Kind of test: Increase in DR5 protein expression in human A549 cells at 13 uM incubated for 4 days in presence of 200 U/ml IFNalpha by Western blot analysis.
For test [14], the system named is A549. Kind of test: Increase in DR5 protein expression in human A549 cells at 13 uM incubated for 4 days in absence of 200 U/ml IFNalpha by Western blot analysis.
Test [15] concerns A549. In words: Growth inhibition of human A549 cells at 13 uM incubated for 4 days in presence of 200 U/ml IFNalpha and in absence of 30 nM 14-3-3zeta siRNA by MTS assay.
Test [16] has as its system A549. Kind of test: Induction of apoptosis in human A549 cells assessed as increase in PARP cleavage at 14 uM incubated for 4 days in absence of 200 U/ml IFNalpha by Western blot analysis.

The source made the active and inactive calls. The calls are words filed in the database; no cut-off is given here.

As a reminder, the EC50 is the midpoint of the concentration-response curve. Consider `COC[C@@]1(O)CC[C@@H]2/C1=C\[C@@]1(C)CCC(C(C)C)=C1[C@@H](O[C@H]1O[C@@H]3COC(C)(C)O[C@H]3[C@H](O)[C@H]1O)[C@H](O)[C@@H]2C`, for which the outcome in the test with A549 [1], in the test on A549 [2] and in the test with A549 [5] was Active. Moreover, the “growth inhibition (GI)” value in the test on A549 [3] is “inactive”. Also, the EC50 was over 200 µM in the test on OVCAR-3 [4], 11 µM with A549 [6], over 200 µM in the test with A549 [7] and 3.3 µM with OVCAR-3 [8]. The “growth inhibition (GI)” value in the test on A549 [9] was “Active”.
Consider `COC[C@H]1O[C@H](O[C@@H]2C3=C(C(C)C)CC[C@]3(C)/C=C3\[C@@H](CC[C@]3(O)COC)[C@@H](C)[C@H]2O)[C@H](O)[C@H]2O[C@H]3O[C@]21O[C@@]3(C)[C@@H]1CO1`, for which the EC50 with OVCAR-3 [4] was 40 µM; with A549 [6], 17 µM; in the test on A549 [7], 125 µM; with OVCAR-3 [8], 4.6 µM. The “growth inhibition (GI)” value in the test on A549 [10] was “inactive”. In the test with A549 [11], the outcome was inactive. The result with A549 [12], in the test on A549 [13] and with A549 [14] was Active. For the same compound, in the test on A549 [15], the “growth inhibition (GI)” value was “Active”.
On to `COC[C@H]1CC[C@@H]2/C1=C\[C@@]1(C)CCC(C(C)C)=C1[C@@H](O[C@H]1O[C@@H]3COC(C)(C)O[C@H]3[C@H](O)[C@H]1O)[C@H](O)[C@@H]2C`, for which the EC50 in the test with OVCAR-3 [4] stood at 29 µM; in the test on A549 [6], 27 µM; in the test on A549 [7] it was 33 µM; in the test on OVCAR-3 [8], 18 µM. In addition, in the test on A549 [16], the outcome was inactive.
Regarding `COC[C@@]1(OC)CC[C@@H]2/C1=C\[C@@]1(C)CCC(C(C)C)=C1[C@@H](O[C@H]1O[C@@H]3COC(C)(C)O[C@H]3[C@H](O)[C@H]1O)[C@H](O)[C@@H]2C`, the EC50 in the test with OVCAR-3 [4] is 140 µM; in the test on A549 [6] it was over 40 µM; in the test with A549 [7], 170 µM; in the test on OVCAR-3 [8] it was over 40 µM.
